Measurements as given in paper PMC9655001, “Isolation and Identification of Antioxidative Peptide from Goose Liver Hydrolysate to Ameliorate Alcohol-Mediated Oxidative Stress Damage in HHL-5 Hepatocytes” (Molecules, 2022).
Where two headings read alike, the source gives them in different places. Marks after values point to notes of the source that are not given here. Ends that are not written are not given here. Peptide text beside a SMILES is read from it.

Tests used:
pepsin and trypsin = experiment: Pepsin-trypsin simulated GI digestion stability; format: in vitro ADME; details: 400 μg/mL peptide; simulated gastric juice (pepsin, pH 3.0) 37 °C 2 h, then simulated intestinal fluid (trypsin, bile salt) 2 h; read-out: retained hepatoprotective activity (ALT, AST, MDA) in HHL-5 model
Procedure: The stability of LPLPFP in response to pepsin and trypsin in the simulation of GI digestion in vitro was examined based on Xie et al.. A 1 L ultrapure water solution containing 2 g of NaCl and 3.2 g of pepsin (3000 U/mg protein) with a pH of 3.0 (adjusted with a 6 mol/L HCl solution), was configured as simulated gastric juice. In addition, 0.68 g of potassium dihydrogen phosphate, 7.7 mL of 0.2 mol/L NaOH solution, 1 g of trypsin (285 U/mg protein), and 6 g of bile salt were added and dissolved in 70 mL of ultrapure water with a pH of 7.6 (adjusted with a 0.2 mol/L NaOH solution) and the volume was filled with ultrapure water up to 1 L (as simulated intestinal fluid). The 400 μg/mL of peptide solution at pH 3.0 (adjusted with a 1 mol/L HCl solution) and 5 mL of simulated gastric juice was mixed and shaken at 37 °C for 2 h to simulate gastric digestion, then the mixture was terminated by being heated at 100 °C for 10 min, the pH was adjusted to 7.2 with a 0.2 mol/L NaOH solution, and 5 mL of simulated intestinal juice was added to the solution, and the same conditions were used for simulating intestinal digestion. Finally, the digestive liquid was transferred to the ultrafiltration centrifuge tube (1 kDa) and centrifuged at 4 °C, 8500× g for 20 min; the filtered solutions were desalted by a polar enhanced polymer (PEP) column (500 mg/6 mL) and dried in a vacuum freeze-dryer.

Fe^2+ chelating ability = details: 1 mg/mL, ferrozine, 10 min room temperature, absorbance 562 nm, mean ± SD
Procedure: (§1) The antioxidant activity of the target peptides was evaluated by detecting the hydroxyl radical scavenging activity (∙OH), DPPH radical scavenging activity, and Fe^2+ chelating ability; the method was performed according to Zhu et al. with some modifications.
Measurement of the Fe^2+ chelating ability. Briefly, 1 mL of LPLPFP was mixed with 0.05 mL of FeCl2 (2 mmol/L) and 0.2 mL of ferrozine (5 mmol/L). The mixture was vortexed and kept at room temperature for 10 min prior to the measurement of the absorbance at 562 nm (As). The control (Ac) contained everything except using deionized water instead of LPLPFP. The chelating ability was calculated according to the equation Fe^2+chelating ability (%) = (Ac − As) ÷ Ac × 100% where As and Ac represent the absorbance of the sample and the control groups. BHT was used as a positive control.

[1] = ∙OH radical scavenging activity; details: 1 mg/mL, 37 °C 60 min, absorbance 536 nm, mean ± SD
Procedure: as §1
Measurement of the ∙OH radical scavenging activity. The sample group was a mixture of 0.6 mL of 1, 10-phenanthroline monohydrate (5 mmol/L) and 0.4 mL of phosphate buffer (0.2 M, pH 7.4), and then 0.6 mL of LPLPFP (1 mg/mL), 0.6 mL of EDTA (15 mmol/L), and 0.6 mL of FeSO4 (5 mmol/L) were mixed thoroughly. After mixing, 0.8 mL of H2O2 (0.1%) was added and incubated at 37 °C for 60 min. Afterward, the mixture absorbance was measured at 536 nm with the multifunctional microplate reader. The control group contained the same solutions as the sample group, except deionized water was used instead of the sample. The blank group contained the same solution as the control group, except deionized water was used instead of H2O2. The results were determined according to the equation. hydroxyl radical scavenging activity (%) = (As − Ac) ÷ (Ab − Ac) × 100% where As, Ac, and Ab represent the absorbance of the sample and the control and blank groups, respectively. BHT was used as a positive control.

[2] = DPPH radical scavenging activity; details: 1 mg/mL, 0.2 mmol/L DPPH, 30 min room temperature, absorbance 517 nm, mean ± SD
Procedure: as §1
Measurement of the DPPH radical scavenging activity. One mL of the LPLPFP (dissolved in deionized water) was mixed with 1 mL of 0.2 mmol/L DPPH (in 95% ethanol) as the sample group; 1 mL of deionized water was mixed with 1 mL of ethanol (95%) as the blank group; and 1 mL of 0.2 mmol/L DPPH was mixed with 1 mL of ethanol (95%) as the control group. The mixture was agitated using a vortex and incubated for 30 min at room temperature, protected from light, and then the absorbance at 517 nm was measured. The scavenging activity of LPLPFP and BHT was calculated using the following equation:DPPH radical scavenging activity (%) = 1 − [ (As − Ac) ÷ (Ab − Ac)] × 100% where As, Ac, and Ab represent the absorbance of the sample, the control, and the blank groups, respectively. BHT was used as a positive control.

[3] = cited from earlier work
From the text: Typically, oligopeptides containing 2 to 10 amino acid residues are considered to have a higher antioxidant activity compared with their parent protein [14]. Free radicals, linked to oxidative stress, are highly reactive with other molecules, including vital DNA and proteins, the destruction of which can damage or kill cells. Among the many free radicals, the ∙OH radical is commonly considered as one of the most harmful highly react ...

HHL-5 hepatocytes [4] = experiment: GSH-Px activity in alcohol-mediated HHL-5 hepatocytes; format: cell-based, human; details: alcohol alone (EtOH model group)
Procedure: (§2) Cells were collected with PBS, the activity of ALT (C009-2-1), AST (C0010-2-1), and MDA (A003-1) in cell supernatant and the SOD (A001-3), GSH-Px (A005), CAT (A007-1-1), and ROS (E004-1-1) in the cells were measured using corresponding assay kits (Nanjing Jiancheng Biotechnology Institute, Nanjing, China) according to the manufacturer’s instructions.
GSH-Px: 0.2 mL of sample was mixed with 0.2 mL of […] and performed at 37 °C for 5 min. Then, 0.1 mL of reagent one was added and performed at 37 °C for 5 min. Subsequently, the miscible liquids were centrifuged at 4 °C, 3500× g for 10 min. One mL of supernatant was mixed with 1 mL of reagent three, 0.25 mL of reagent four, and 0.05 mL of reagent five and performed at room temperature for 15 min. The absorbance value was measured at a 412 nm wavelength by a multifunctional microplate reader.

HHL-5 hepatocytes [5] = experiment: CAT activity in alcohol-mediated HHL-5 hepatocytes; format: cell-based, human; details: alcohol alone (EtOH model group)
Procedure: as §2
CAT: 0.05 mL of sample was mixed with 1.0 mL reagent one, 0.1 mL reagent two and performed at 37 °C for 1 min. Then, 1.0 mL reagent three and 0.1 mL reagent four were mixed with the miscible liquids. The absorbance value was measured at 405 nm wavelength by a multifunctional microplate reader.

HHL-5 hepatocytes [6] = experiment: SOD activity in alcohol-mediated HHL-5 hepatocytes; format: cell-based, human; details: alcohol alone (EtOH model group)
Procedure: as §2
SOD: 20 μL of sample was mixed with 20 μL enzyme working liquid and 200 μL of substrate application solution. Then, miscible liquids were performed at 37 °C for 20 min. The absorbance values of the miscible liquids were measured at a 450 nm wavelength by a multifunctional microplate reader.

HHL-5 hepatocytes [7] = experiment: Cell viability by Cell Counting Kit-8
Procedure: Furthermore, HHL-5 hepatocytes were cultured with different concentrations of GLHP (100 μg/mL, 200 μg/mL, 300 μg/mL, 400 μg/mL, and 500 μg/mL) to evaluate the cytotoxicity of GLHP, as described above. The ability of GLHP to protect HHL-5 hepatocytes was evaluated. […] In the CTRL group, a culture medium supplemented with an equal volume of the PBS was added and incubated for 12 h, and the culture medium was then substituted with an equal volume of the PBS and incubated for 48 h. Finally, the culture media and cells were collected for further analysis.
The Cell Counting Kit-8 (CCK-8, Beijing Solarbio Science and Technology Co., Ltd., Beijing, China) was used to assess the HH-5 cell viability; the testing procedures were performed according to the manufacturer’s protocol. Adherent cells in 96-well culture plates were treated and then incubated with a CCK solution for 2 h; the absorbance was detected at a wavelength of 450 nm with the multifunctional microplate reader.

HHL-5 hepatocytes [8] = experiment: MDA level in model of alcohol-mediated HHL-5 hepatocytes damage; format: cell-based, human; details: alcohol 500 mmol/L, 48 h, no peptide pre-treatment (model group)
Procedure: as §2
MDA: 0.1 mL of sample was mixed with 0.1 mL of reagent one, 3 mL of reagent two, and 1 mL of reagent three in the 10 mL centrifuge tube. Then, the centrifuge tube was centrifuged at 4 °C, 3500× g for 10 min after being heated in a boiling water bath for 40 min. The absorbance value of 200 μL of the supernatant was measured at a 532 nm wavelength by a multifunctional microplate reader.

HHL-5 hepatocytes [9] = experiment: H2O2 level in alcohol-mediated HHL-5 hepatocytes; format: cell-based, human; details: alcohol alone (EtOH model group)
Procedure: The cell suspension was inoculated into 96-well plates (4 × 10^3 per well) and added to the culture medium containing: DMEM-F12 (1:1, HyClone, Logan, UT, USA), 10% FBS (Gibco, New York, NY, USA), 1% P/S (100 U/L), 15 mmol/L of HEPES, and 2.5 mmol/L of L-glutamine, then the plates with cells were placed in a 5% CO2 humidified atmosphere at 37 °C for 24 h. […] Furthermore, HHL-5 hepatocytes were cultured with different concentrations of GLHP (100 μg/mL, 200 μg/mL, 300 μg/mL, 400 μg/mL, and 500 μg/mL) to evaluate the cytotoxicity of GLHP, as described above. The ability of GLHP to protect HHL-5 hepatocytes was evaluated. […] In the CTRL group, a culture medium supplemented with an equal volume of the PBS was added and incubated for 12 h, and the culture medium was then substituted with an equal volume of the PBS and incubated for 48 h. Finally, the culture media and cells were collected for further analysis.

HHL-5 hepatocytes [10] = experiment: ROS level in alcohol-mediated HHL-5 hepatocytes (DCFH-DA); format: cell-based, human; details: alcohol alone (EtOH model group)
Procedure: as §2
ROS: A DCFH-DA probe was added directly to the serum-free medium: DCFH-DA was generally diluted with a serum-free medium at a final concentration of 10 µM at 1:1000. After removing the culture medium, an appropriate volume of diluted DCFH-DA was added. The volume added should be sufficient to cover the cells. Usually, no less than 1 mL of diluted DCFH-DA is added to one well of a 6-well plate. A sample of cells without a probe and with a medium only was set as negative for the control. Positive control: take a sample of cells with a probe and add reactive oxygen species to induce the cells. The cells were incubated at 37 °C for 20 min […] (mixed upside down every 5 min to make full contact between the probe and cell). […] In general, an obvious green fluorescence can be observed in the positive control cells after 30 min of stimulation. […] It can also be detected according to FITC fluorescence detection conditions. The results were expressed as fluorescence values.

HHL-5 hepatocytes [11] = experiment: AST level in model of alcohol-mediated HHL-5 hepatocytes damage; format: cell-based, human; details: alcohol 500 mmol/L, 48 h, no peptide pre-treatment (model group)
Procedure: as §2
ALT and AST: 5 μL of sample was mixed with 20μL of ALT/AST matrix solution and the reaction was performed at 37 °C for 30 min. Then, 20 μL of 2, 4-dinitrophenylhydrazine solution was added and the reaction was performed at 37 °C for 20 min. Finally, 200 μL of sodium hydroxide solution (0.4 mol/L) was added and the reaction was performed at room temperature for 15 min. The absorbance value was measured at a 510 nm wavelength by a multifunctional microplate reader.

For `CC(C)C[C@H](NC(=O)[C@@H]1CCCN1C(=O)[C@@H](N)CC(C)C)C(=O)N1CCC[C@H]1C(=O)N[C@@H](Cc1ccccc1)C(=O)N1CCC[C@H]1C(=O)O` [LPLPFP, Leu-Pro-Leu-Pro-Phe-Pro] (H-LPLPFP-OH), the “resistance to pepsin-trypsin simulated GI digestion” value (pepsin and trypsin) was “strong resistance”.
For `Cc1cc(C(C)(C)C)c(O)c(C(C)(C)C)c1` [BHT], the “Fe^2+ Chelating Ability (%)” value (Fe^2+ chelating ability) was 14.39 ± 2.46 ^b %, the “∙OH Radical Scavenging Activity (%)” value [1] was 79.38 ± 2.03 ^b % and the “DPPH Radical Scavenging Activity (%)” value [2] was 90.56 ± 1.73 ^b %.
In the case of NPPKFD, the “Fe^2+ chelating ability (source: scavenging rate of Fe^2+)” value ([3]; 1 mg/mL ref 3) is listed as 66.92%.
In the case of Gly-Lys-Phe-Asn-Val, the “Fe^2+ chelating ability (source: scavenging rate of Fe^2+)” value ([3]; 1 mg/mL ref 16) is listed as 63.20%.
With `CCO` [alcohol, anhydrous ethanol] the “level of GSH-Px after administration of alcohol” value (HHL-5 hepatocytes [4]) was 49.26 ± 4.82 U/mg prot, the “level of CAT after administration of alcohol” value (HHL-5 hepatocytes [5]) was 24.87 ± 3.28 U/mg prot and the “level of SOD after administration of alcohol” value (HHL-5 hepatocytes [6]) was 31.28 ± 4.53 U/mg prot. For the same compound, the “viability of HHL-5 hepatocytes” value (HHL-5 hepatocytes [7]; 500 mmol/L alcohol, 48 h, CCK-8, mean ± SD, at least triplicates) was “approximately 49.28 ± 5.12%”, the “median lethal dose of alcohol for HHL-5 hepatocytes (LD50)” value (HHL-5 hepatocytes [7]; 48 h incubation, CCK-8) was 500 mmol/L and the “level of MDA in the EtOH group” value (HHL-5 hepatocytes [8]) was 24.36 ± 2.85 mmol/mL. The “level of H2O2 after stimulation with alcohol” value (HHL-5 hepatocytes [9]) was 43.86 ± 3.57 mmol/L, the “level of ROS after stimulation with alcohol” value (HHL-5 hepatocytes [10]) was 95.23 ± 6.54 U/mg prot and the “level of AST in the EtOH group” value (HHL-5 hepatocytes [11]) was 376.57 ± 32.83 U/L.
